From ChEMBL document CHEMBL1201862, “PubChem BioAssay data set” (2004)
Active and inactive are the calls of the source.

Experiments:
cells [1] = assay type: functional, cell-based
cells [2] = assay type: functional, cell-based; remark: listed apart in the source
[3] = target: T1, RNA-binding protein pos-1 (Caenorhabditis elegans, UniProt G5EF15); assay: inhibitors of POS-1/mex-3 RNA binding, dose response, biochemical, fluorescence polarization (AID 1964);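 also: purified POS-1 fused to maltose binding protein made in E. coli; potency of compounds blocking POS-1 binding to fluorescent RNA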
T1 sequence (G5EF15 whole entry): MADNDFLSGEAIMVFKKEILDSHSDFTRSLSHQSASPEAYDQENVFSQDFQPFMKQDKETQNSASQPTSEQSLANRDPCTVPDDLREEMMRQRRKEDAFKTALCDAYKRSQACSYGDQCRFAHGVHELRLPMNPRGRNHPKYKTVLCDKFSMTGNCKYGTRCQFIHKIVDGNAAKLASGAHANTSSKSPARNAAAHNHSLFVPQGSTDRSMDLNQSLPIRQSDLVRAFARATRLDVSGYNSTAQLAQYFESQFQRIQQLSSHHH

[4] = target: T2, Zinc finger protein mex-5 (Caenorhabditis elegans, UniProt Q9XUB2); assay: MEX-5/TCR-2 RNA interaction inhibitors, dose response, biochemical, C. elegans, fluorescence polarization (AID 1960)
T2 sequence (Q9XUB2 whole entry): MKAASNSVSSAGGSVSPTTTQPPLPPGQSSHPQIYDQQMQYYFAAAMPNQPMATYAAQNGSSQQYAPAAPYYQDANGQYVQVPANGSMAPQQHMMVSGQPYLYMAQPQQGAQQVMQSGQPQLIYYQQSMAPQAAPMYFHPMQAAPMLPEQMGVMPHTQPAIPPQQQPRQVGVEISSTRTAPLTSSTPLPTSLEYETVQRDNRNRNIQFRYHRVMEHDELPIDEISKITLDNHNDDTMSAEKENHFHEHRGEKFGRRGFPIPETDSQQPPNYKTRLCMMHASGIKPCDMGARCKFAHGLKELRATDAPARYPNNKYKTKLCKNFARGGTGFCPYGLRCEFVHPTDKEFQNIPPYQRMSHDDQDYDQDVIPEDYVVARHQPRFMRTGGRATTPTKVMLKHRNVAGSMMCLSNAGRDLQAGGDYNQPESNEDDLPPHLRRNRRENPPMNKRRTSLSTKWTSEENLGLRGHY

[5] = target: T3, Ubiquitin-conjugating enzyme E2 N (Homo sapiens, UniProt P61088); assay type: functional;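 also: Dose-response confirmation in a TR-FRET assay detecting UBC13-driven polyubiquitin chain formation, inhibition measured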
T3 sequence (P61088 whole entry): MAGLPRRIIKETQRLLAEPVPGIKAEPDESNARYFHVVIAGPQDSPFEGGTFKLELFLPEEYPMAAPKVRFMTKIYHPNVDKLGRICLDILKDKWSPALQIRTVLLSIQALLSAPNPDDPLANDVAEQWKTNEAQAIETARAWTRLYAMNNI

[6] = target: T4, Heat shock factor protein 1 (Mus musculus, UniProt P38532); assay: inhibition of MG132-induced HSE-luciferase signal, confirmation, cell-based, NIH3T3, luminescence, dose retest (AID 2382); assay type: functional;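 also: NIH3T3 fibroblasts with HSF1-driven luciferase reporter stressed by proteasome inhibitor MG132; luminescence from HSF1-driven luciferase expression after 8 hours of MG132 stress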
T4 sequence (P38532 whole entry): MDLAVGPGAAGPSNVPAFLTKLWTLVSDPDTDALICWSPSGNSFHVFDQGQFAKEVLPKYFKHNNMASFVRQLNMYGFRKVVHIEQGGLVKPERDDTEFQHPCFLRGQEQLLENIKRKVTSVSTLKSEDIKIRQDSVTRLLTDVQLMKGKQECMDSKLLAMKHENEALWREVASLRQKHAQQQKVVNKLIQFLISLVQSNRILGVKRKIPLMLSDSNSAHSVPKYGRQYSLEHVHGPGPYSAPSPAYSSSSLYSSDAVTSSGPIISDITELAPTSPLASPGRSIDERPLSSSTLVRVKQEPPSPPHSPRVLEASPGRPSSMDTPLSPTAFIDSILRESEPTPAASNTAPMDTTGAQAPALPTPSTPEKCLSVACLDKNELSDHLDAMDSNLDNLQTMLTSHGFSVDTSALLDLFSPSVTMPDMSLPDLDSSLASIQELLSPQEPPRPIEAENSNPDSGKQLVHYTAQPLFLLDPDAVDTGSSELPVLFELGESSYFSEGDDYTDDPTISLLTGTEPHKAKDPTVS

[7] = target: T5, High affinity choline transporter 1 (Homo sapiens, UniProt Q9GZV3); assay: CHT inhibitors, dose response, cell-based, 5-point CRC, membrane potential dye (AID 504840); assay type: functional
T5 sequence (Q9GZV3 whole entry): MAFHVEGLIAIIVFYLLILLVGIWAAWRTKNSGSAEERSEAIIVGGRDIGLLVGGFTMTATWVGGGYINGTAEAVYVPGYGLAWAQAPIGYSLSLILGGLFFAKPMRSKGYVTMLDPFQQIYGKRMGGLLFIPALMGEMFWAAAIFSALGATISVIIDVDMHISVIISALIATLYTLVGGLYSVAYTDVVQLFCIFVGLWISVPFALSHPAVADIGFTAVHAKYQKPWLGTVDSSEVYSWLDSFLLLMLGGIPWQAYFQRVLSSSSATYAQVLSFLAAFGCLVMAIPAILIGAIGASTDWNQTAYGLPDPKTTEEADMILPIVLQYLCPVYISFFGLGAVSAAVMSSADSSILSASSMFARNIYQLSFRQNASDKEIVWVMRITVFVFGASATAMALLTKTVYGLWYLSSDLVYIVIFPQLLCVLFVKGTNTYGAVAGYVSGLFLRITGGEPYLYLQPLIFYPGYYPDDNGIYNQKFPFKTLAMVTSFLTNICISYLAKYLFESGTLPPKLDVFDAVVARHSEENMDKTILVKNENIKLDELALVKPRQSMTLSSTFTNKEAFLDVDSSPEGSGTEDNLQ

[8] = Shn3 3'UTR reporter inhibitors, dose response, cell-based, Clone20 osteoblasts, firefly luciferase, cherry-picked (AID 624132); assay type: functional;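 also: firefly luciferase luminescence from reporter carrying the Shn3 3'UTR in osteoblasts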
[9] = control 3'UTR Renilla luciferase suppression, dose response, counter-screen for Shn3 inhibitor project, cell-based, Clone20-Shn3RL, cherry-picked (AID 624133); assay type: functional
[10] = intracellular Trypanosoma cruzi inhibitors in host cells – cell-based, plate reader, cherry-pick samples, set 3, dose response (AID 651818); assay type: functional;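 also: compounds incubated with infected cells for about four days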

With `COc1ccccc1CC(=N)NO` the EC50 (cells [1]) was > 350 µM (not active) and the EC50 (cells [2]) was > 350 µM (not active).

For `Cc1ccc(CN(C)C(=O)CC2C(=O)NCCN2CC2CCCCC2)cc1` (stereo not drawn), the EC50 [3] was 175 µM (active) and the EC50 [4] was > 300 µM (not active).

For `COc1cccc(-c2nn(C)c3sc(C(=O)NCCCN(C)Cc4ccccc4)cc23)c1`, the IC50 [5] was > 20 µM (inactive).

In the case of `C#Cc1ccc([C@@H]2C=C(C(=O)OCC=C)O[C@H](OCc3ccc(CO)cc3)C2)cc1`, the EC50 [6] is reported as > 195 µM (not active).

With `CC(C)c1cc(-c2cc(C(=O)NCc3ccccc3)on2)nc(NC2CCCC2)n1` the EC50 (cells [1]) was > 350 µM (not active) and the EC50 (cells [2]) was > 350 µM (not active).

In the case of `COc1ccc(Cc2nnc(SCC(=O)NC3CCCCC3)n2C)cc1`, the EC50 (cells [1]) is reported as > 350 µM (not active) and the EC50 (cells [2]) is reported as > 350 µM (not active).

With `C/C=C(\C)CN1CCC(Oc2cccc(C(=O)NCc3ccccn3)c2)CC1` the IC50 [7] was 12.3 µM (active).

In the case of `CCOC(=O)c1ccc(-n2c(CCC(=O)O)ccc2-c2ccc(F)cc2)cc1`, the EC50 [3] is reported as > 300 µM (not active) and the EC50 [4] is reported as > 300 µM (not active).

For `CCOc1ccc(/C=C2\SC(=S)N(NC(=O)c3ccncc3)C2=O)cc1OC`, the IC50 [7] was 15.1 µM (active).

For `NC(=S)N=Nc1c(O)n(CCCl)c2ccc(Cl)cc12`, the IC50 [5] was > 20 µM (inactive).

With `Cc1ccc(C(=O)N[C@@H](C)CN2C3=NC[C@H](Cc4ccccc4)N3C[C@H]2Cc2ccc(O)cc2)cc1Br` the IC50 [5] was > 20 µM (inactive).

With `O=C(COC(=O)CCCCCNC1=NS(=O)(=O)c2ccccc21)Nc1ccc(Cl)c(Cl)c1` the IC50 [5] was > 20 µM (inactive).

With `Cc1noc(C)c1CSc1ncnc2sc3c(c12)CCC3` the EC50 [6] was > 195 µM (not active).

With `Cc1ccc2c(c1)N(CCCC(=O)NCC1COc3ccccc3O1)C(=O)CO2` (stereo not drawn) the IC50 [7] was 13.8 µM (active).

With `CCOc1ccc(NC(=O)CC2C(=O)Nc3ccccc3N2C(=O)c2ccccc2)cc1` (stereo not drawn) the EC50 (cells [1]) was > 350 µM (not active) and the EC50 (cells [2]) was > 350 µM (not active).

In the case of `CCN1C(=O)/C(=C\N(C)C)NC1=S`, the EC50 [3] is reported as 22.6 µM (active) and the EC50 [4] is reported as 154 µM (inconclusive).

In the case of `CCOC(=O)Cc1csc(NS(=O)(=O)c2ccc3c4c(cccc24)C(=O)N3CC)n1`, the IC50 [7] is reported as 4.79 µM (active).

For `CCCCc1nnc(NC(=O)c2ccc3nc(O)c(O)nc3c2)s1`, the EC50 (cells [1]) was > 350 µM (not active) and the EC50 (cells [2]) was > 350 µM (not active).

With `CN(C)S(=O)(=O)c1cccc(COc2ncnc3c(Cl)cc(Cl)cc23)c1` the IC50 [5] was > 20 µM (inactive).

In the case of `C=CCOc1ccc(C(c2c(C)n(C)n(-c3ccccc3)c2=O)c2c(C)n(C)n(-c3ccccc3)c2=O)cc1`, the EC50 [6] is reported as > 195 µM (not active).

For `COc1ccc(CCC(=O)Nc2cccc(Cl)c2)cc1`, the EC50 [3] was > 300 µM (not active) and the EC50 [4] was > 300 µM (not active).

For `CCOC(=O)C1=C(C)OC(N)=C(C#N)C1c1ccc(O)c(OC)c1` (stereo not drawn), the EC50 [3] was > 300 µM (not active) and the EC50 [4] was > 300 µM (not active).

In the case of `COc1ccccc1NC(=O)CSc1nc2ccccc2n1C(C)=O`, the IC50 [5] is reported as > 20 µM (inactive).

In the case of `O=C(Nc1ccccc1C(=O)NCCCN1CCOCC1)c1ccc(F)cc1`, the IC50 [7] is reported as 7.09 µM (active).

With `CCOC(=O)C(=NC1CCS(=O)(=O)C1)NNc1cc(Cl)ccc1Cl` (stereo not drawn) the IC50 [5] was > 20 µM (inactive).

For `CCNC(=O)c1cc2c(=O)n3cccc(C)c3nc2n(Cc2ccc(C)cc2)c1=N`, the EC50 [3] was > 300 µM (not active) and the EC50 [4] was 45.5 µM (active).

In the case of `CNC(=O)Cn1nc(C)c2ccccc2c1=O`, the EC50 [6] is reported as > 195 µM (not active).

For `CCc1ccc(OC(C)C(=O)N(Cc2ccco2)C2CCS(=O)(=O)C2)cc1` (stereo not drawn), the EC50 [6] was > 195 µM (not active).

For `O=C(Nc1ccc(S(=O)(=O)N2CCOCC2)cc1)c1ccc(Cl)cc1Cl`, the EC50 [6] was > 195 µM (not active) and the IC50 [7] was 13.8 µM (active).

For `Cc1noc(C)c1COC(=O)C1CC(O)CN1S(=O)(=O)c1ccc(Cl)cc1` (stereo not drawn), the EC50 (cells [1]) was > 350 µM (not active) and the EC50 (cells [2]) was > 350 µM (not active).

In the case of `COc1ccccc1NS(=O)(=O)c1cccc(C(=O)NNC(=O)c2ccc(Cl)nc2)c1`, the IC50 [5] is reported as > 20 µM (inactive).

For `CCOc1ccccc1NC(=O)COc1cccnc1[N+](=O)[O-]`, the IC50 [5] was > 20 µM (inactive).

For `CCCCNc1cccc2c1S(=O)(=O)N(CCCC)CC(COCc1ccccc1)O2` (stereo not drawn), the AC50 [8] was 8.93 µM (active) and the AC50 [9] was 31.7 µM (active).

For `COc1ccc(S(=O)(=O)Nc2ccc3c(c2)C(=O)N([C@H](C)CO)C[C@H](C)[C@@H](CN(C)Cc2ccc(-c4ccccc4)cc2)O3)cc1`, the AC50 [10] was 3.32 µM (active).

With `C[C@@H]1CCCCO[C@@H](CN(C)CC2CCCCC2)[C@@H](C)CN([C@H](C)CO)C(=O)c2cc(NC(=O)Nc3ccc4c(c3)OCO4)ccc2O1` the AC50 [10] was 0.75 µM (active).

In the case of `C[C@H]1CN([C@@H](C)CO)C(=O)c2cccc(NC(=O)c3ccc(-c4nccs4)cc3)c2O[C@@H]1CN(C)Cc1ccc(-c2ccccc2)cc1`, the AC50 [10] is reported as 2.93 µM (active).

For `C[C@@H]1CN([C@@H](C)CO)C(=O)c2cccc(NS(=O)(=O)c3ccc(F)cc3)c2O[C@@H]1CN(C)Cc1ccc(Oc2ccccc2)cc1`, the AC50 [10] was 7.95 µM (active).

For `C[C@@H]1CCCCO[C@H](CN(C)C(=O)NC2CCCCC2)[C@@H](C)CN([C@H](C)CO)C(=O)c2cc(NC(=O)Nc3ccc(C(F)(F)F)cc3)ccc2O1`, the AC50 [10] was 4.85 µM (active).

With `C[C@@H]1CN([C@H](C)CO)C(=O)Cc2cc(NC(=O)Nc3ccc(C(F)(F)F)cc3)ccc2O[C@@H]1CN(C)Cc1ccc(-c2ccccc2)cc1` the AC50 [10] was 3.22 µM (active).

With `C[C@@H]1CN([C@H](C)CO)C(=O)Cc2cc(NC(=O)Nc3ccc(F)cc3)ccc2O[C@@H]1CN(C)Cc1ccc(Oc2ccccc2)cc1` the AC50 [10] was 2.71 µM (active).

For `COc1ccc(S(=O)(=O)N(C)C[C@@H]2Oc3c(NC(=O)c4nc5ccccc5s4)cccc3C(=O)N([C@H](C)CO)C[C@@H]2C)cc1`, the AC50 [10] was 1.17 µM (active).

In the case of `C[C@@H]1CN([C@H](C)CO)C(=O)Cc2cc(NS(=O)(=O)c3ccccc3)ccc2O[C@@H]1CN(C)Cc1ccc(C(=O)Nc2ccccc2N)cc1`, the AC50 [10] is reported as 3.75 µM (active).

With `C[C@H]1CN([C@@H](C)CO)C(=O)c2cccc(NC(=O)C3CCCCC3)c2O[C@H]1CN(C)Cc1ccc(C(=O)Nc2ccccc2N)cc1` the AC50 [10] was 3.38 µM (active).

In the case of `C[C@@H]1CCCCO[C@@H](CN(C)Cc2ccc(C(F)(F)F)cc2)[C@@H](C)CN([C@H](C)CO)C(=O)c2cc(NC(=O)C3CCCCC3)ccc2O1`, the AC50 [10] is reported as 6.38 µM (active).
